From paper PMC3021963 (ChemMedChem, 2010)

Legend:
Format in all cases: biochemical
[1] = biological target: T1, MbtI (Mycobacterium tuberculosis, UniProt P9WFX1); experiment: continuous fluorescence assay of MbtI; settings: for Fluorescence Assay Hill: Table 1, Hill slope of concentration-response plot
[2] = biological target: T1, MbtI; experiment: HPLC end-point assay of MbtI; settings: for HPLC Assay Hill: Table 1, Hill slope of concentration-response plot
[3] = biological target: T1, MbtI
[4] = Table 3, class III benzimidazole-2-thiones
[5] = Table 3, class III benzimidazole-2-thiones, synthetically prepared compounds
[6] = IC50, Table 2, class II diarylsulfones
[7] = Table 2, class II diarylsulfones

T1 sequence (P9WFX1 whole entry, looked up): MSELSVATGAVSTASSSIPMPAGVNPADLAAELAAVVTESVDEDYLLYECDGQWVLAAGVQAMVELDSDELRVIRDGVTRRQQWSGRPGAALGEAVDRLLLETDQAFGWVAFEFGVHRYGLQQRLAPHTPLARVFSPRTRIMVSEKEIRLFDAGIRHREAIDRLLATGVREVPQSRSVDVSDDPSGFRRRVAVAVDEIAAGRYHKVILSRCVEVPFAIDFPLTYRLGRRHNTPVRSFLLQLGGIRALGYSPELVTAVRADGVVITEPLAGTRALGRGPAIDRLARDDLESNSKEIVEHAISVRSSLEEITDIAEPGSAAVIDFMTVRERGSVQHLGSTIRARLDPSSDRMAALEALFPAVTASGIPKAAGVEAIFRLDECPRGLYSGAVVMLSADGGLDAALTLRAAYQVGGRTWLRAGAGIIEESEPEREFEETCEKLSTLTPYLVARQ

With `CC(=O)n1c(=O)[nH]c2ccccc21` [Compound 45, 1-Acetylbenzimidazole-2-one] the “MbtI inhibition (in words)” value [1] was “completely inactive”.
With `CC(=O)n1c(=S)oc2ccccc21` [Compound 42, 1-Acetylbenzoxazole-2-thione] the “change in potency relative to parent compound 4” value [1] was “about twofold less potent”, the “Hill Slope” value [1, 4] was 1.10 and the IC50 [1, 5] was 21.8 ± 1.4 µM.
`CC(=O)n1cc[nH]c1=S` [Compound 47, 1-Acetylimidazole-2-thione] was tested, and the “MbtI inhibition (in words)” value [1] was “abolished all activity”.
With `NS(=O)(=O)c1cccc(S(=O)(=O)c2ccc(Cl)c(Cl)c2)c1` [Compound 8, 3-(3,4-Dichlorophenylsulfonyl)benzenesulfonamide] the IC50 [1, 6] was 35 µM, the “Fluorescence Assay Hill” value [1] was 0.85 and the “Hill Slope” value [1, 7] was 0.85. For the same compound, the IC50 [2] was 49.2 ± 11.6 µM and the “HPLC Assay Hill” value [2] was 0.7.
`CC(=O)n1cnc2ccccc21` [Compound 44, 1-Acetylbenzimidazole] was tested, and the “MbtI inhibition (in words)” value [1] was “completely inactive”.
`S=c1[nH]c2ccccc2[nH]1` [Compound 34, benzimidazole-2-thione] was tested, and the “change in potency relative to parent compound 4” value [1] was “six- to nine-fold decreases in potency” and the “Hill Slope” value [1, 4] was 0.90.
In the case of `O=S(=O)(c1cccc(S(=O)(=O)N2CCOCC2)c1)c1ccc(Cl)c(Cl)c1` [Compound 31, N-[3-(3,4-Dichlorophenylsulfonyl)phenylsulfonyl]morpholine], the IC50 [1, 7] is reported as over 200 µM.
With `Cn1c(=S)[nH]c2ccccc21` [Compound 40, N-methylbenzimidazole-2-thione] the “change in potency relative to parent compound 4” value [1] was “six- to nine-fold decreases in potency” and the “Hill Slope” value [1, 4] was 1.20.
`CNS(=O)(=O)c1cccc(S(=O)(=O)c2ccccc2)c1` [Compound 28, N-Methyl-3-(phenylsulfonyl)benzenesulfonamide] was tested, and the IC50 [1, 6] was over 200 µM.
`CC(=O)n1c(=S)[nH]c2cc(C)ccc21` [Compound 41, 1-Acetyl-5/6-methylbenzimidazole-2-thione] was tested, and the “change in potency relative to parent compound 4” value [1] was “no impact on potency was observed”, the “Hill Slope” value [1, 4] was 1.20 and the IC50 [1, 5] was 7.6 ± 0.4 µM.
For `CC(=O)n1c(=S)[nH]c2ccccc21` [Compound 4, 1-Acetylbenzimidazole-2-thione], the Ki [3] was 9.7 µM, the α value ([3]; noncompetitive inhibition model) was 1 and the mode of inhibition ([3]; with respect to chorismate) was “noncompetitive inhibition”. The “Fluorescence Assay Hill” value [1] was 1.71, the “Hill Slope” value [1, 4] was 1.00 and the IC50 [2] was 5.16 ± 0.49 µM. For the same compound, the “HPLC Assay Hill” value [2] was 1.23.
In the case of `CC(=O)NS(=O)(=O)c1cccc(S(=O)(=O)c2ccc(Cl)c(Cl)c2)c1` [Compound 32, N-[3-(3,4-Dichlorophenylsulfonyl)phenylsulfonyl]acetamide], the “MbtI inhibition (in words)” value [1] is reported as “completely inactive” and the IC50 [1, 6] is reported as over 200 µM.
`CNS(=O)(=O)c1cccc(S(=O)(=O)c2ccc(Cl)c(Cl)c2)c1` [Compound 29, 3-(3,4-Dichlorophenylsulfonyl)-N-methylbenzenesulfonamide] was tested, and the IC50 [1, 6] was over 200 µM.
For `NS(=O)(=O)c1cccc(S(=O)(=O)c2ccc(Cl)cc2)c1` [Compound 26, 3-(4-Chlorophenylsulfonyl)benzenesulfonamide], the “MbtI inhibition (in words)” value [1] was “complete loss of activity” and the IC50 [1, 6] was over 200 µM.
Work on `Nc1ccc(S(=O)(=O)c2ccc(N)cc2)cc1` [Compound 33, 4,4′-diaminodiphenylsulfone, reference compound] yielded an IC50 [1, 6] of 118 ± 19 µM.
In the case of `CC(=O)N1C(=O)Cc2ccccc21` [Compound 43, 1-Acetyl-2-oxindole], the “MbtI inhibition (in words)” value [1] is reported as “completely inactive”.
With `O=S(=O)(NCc1ccccc1)c1cccc(S(=O)(=O)c2ccc(Cl)c(Cl)c2)c1` [Compound 30, N-Benzyl-3-(3,4-dichlorophenylsulfonyl)benzenesulfonamide] the IC50 [1, 6] was over 200 µM.
With `CSc1nc2ccccc2[nH]1` [Compound 46, 2-thiomethylbenzimidazole] the “MbtI inhibition (in words)” value [1] was “completely inactive” and the IC50 [1, 5] was over 200 µM.
For `NS(=O)(=O)c1cccc(S(=O)(=O)c2ccccc2)c1` [Compound 27, 3-(Phenylsulfonyl)benzenesulfonamide], the “MbtI inhibition (in words)” value [1] was “complete loss of activity” and the IC50 [1, 6] was over 200 µM.
